Assay [1] concerns the target T1, Acetylcholinesterase (Electrophorus electricus, Type VI-S) (Electrophorus electricus, UniProt O42275). Briefly: biochemical. The following applies: Electrophorus electricus AChE, mean of three experiments ± SD; read-out: IC50 anti-AChE activity (converted).
The target of the next assay is T2, Aβ1-42 fibrillization (Homo sapiens, UniProt P05067).
T2 construct: Aβ1–42 was purchased from GenicBio Inc; purchased GenicBio Inc
The experiment in a line: Thioflavin T (ThT) anti-Aβ fibrillization assay. The assay is classed as biochemical. Particulars: mean ± SD (n = 3); for Aβ fibrillization inhibition: samples 500 μg/mL, 24 h.

Assay [2] deals with T1, Acetylcholinesterase (Electrophorus electricus, Type VI-S). The experiment in a line: AChE inhibition kinetics (Lineweaver–Burk / Michaelis–Menten). The assay is classed as biochemical. The following applies: for Inhibition Type: Lineweaver–Burk plots. Here is the method:
The inhibition curves were plotted using linear regression (Lineweaver–Burk plot) on GraphPad Prism 10.3 (Figure 8).
The Km and Vmax values were calculated using a non-linear fit (Michaelis–Menten equation) (Table 6). The Ki value (inhibitor constant), the dissociation constant describing the binding affinity between the inhibitor and the enzyme, was calculated as described previously.
AChE inhibition was measured using Ellman’s method with slight modifications. The compounds were incubated with the enzyme and the substrate (10 mM ATC) for 15 min. Later, 15 mM DTNB was added, and the plate was incubated for 10 min at 37 °C. The absorbance was measured at 412 nm using a multimode reader (Synergy-H1 BioTek, Agilent, Santa Clara, CA, USA). Galantamine served as a positive control. Percent inhibition was computed using the equation: […]
Statistical analysis was performed by one-way ANOVA followed by Dunnett’s post hoc test. The data were registered as the mean ± SD of at least three experiments. The symbol *** represent p < 0.001 significance compared to the control. The IC50 values were determined using non-linear regression, and the Lineweaver–Burk plots were drawn using linear regression analysis by GraphPad Prism 10.3.

Another assay concerns AChE. The following applies: cited from earlier work.
For assay [3], the system named is LPS-treated animal models. The following applies: cited from earlier work.
The next assay deals with microglial cells. The following applies: cited from earlier work.
Setting [4] is: inhibitor 10 μg/mL, read-out: Ki.
Where [5] appears, read: inhibitor 30 μg/mL, read-out: Ki.
Setting [6] is: no inhibitor concentration stated, read-out: Ki value.
[7] abbreviates: listed as 9-methyl-9H-carbazole-2-carbaldehyde.
The mark [8] stands for this setting: pre-treatment, LPS-treated animal models.

≈ marks a conversion by molar mass, not a printed value. Where “and” joins values, the source holds several entries; their conditions need not be identical. Identical values can stand only once. Like-named read-outs stand apart in the source and are kept apart here.

One may read the IC50 as the point on the concentration scale where inhibition reaches its midpoint. A word on the Vmax: it is the rate approached at saturating substrate. Broadly, the Ki is a measure of affinity in units of concentration, obtained from inhibition or displacement. What is called inhibition is how much of the control response was suppressed.

T1 sequence (O42275 24-633): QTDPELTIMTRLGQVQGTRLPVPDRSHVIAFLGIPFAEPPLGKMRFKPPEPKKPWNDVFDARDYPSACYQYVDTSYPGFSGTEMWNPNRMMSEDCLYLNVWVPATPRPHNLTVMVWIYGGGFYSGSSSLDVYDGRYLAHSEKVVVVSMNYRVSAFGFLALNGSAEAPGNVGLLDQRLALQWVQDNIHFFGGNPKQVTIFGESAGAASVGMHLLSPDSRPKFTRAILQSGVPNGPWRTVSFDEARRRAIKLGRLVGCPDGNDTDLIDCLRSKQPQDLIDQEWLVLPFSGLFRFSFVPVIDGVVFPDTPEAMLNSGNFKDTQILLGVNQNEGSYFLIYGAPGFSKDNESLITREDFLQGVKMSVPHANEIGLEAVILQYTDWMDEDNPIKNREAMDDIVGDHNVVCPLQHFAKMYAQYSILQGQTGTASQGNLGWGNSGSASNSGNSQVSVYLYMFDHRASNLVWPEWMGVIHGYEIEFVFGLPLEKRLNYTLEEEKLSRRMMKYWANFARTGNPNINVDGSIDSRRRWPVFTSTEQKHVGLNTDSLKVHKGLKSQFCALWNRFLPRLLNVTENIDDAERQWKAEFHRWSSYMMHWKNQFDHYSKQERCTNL
T2 sequence (P05067 672-713): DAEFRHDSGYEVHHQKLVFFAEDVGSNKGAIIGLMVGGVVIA

As to `COc1cc2[nH]c3c(C/C=C(\C)CCC=C(C)C)c(O)ccc3c2cc1C` [Murrayanol, murrayanol], in assay [1], the concentration for half-maximal inhibition (IC50) was ~550 nM and 523 nM. On Aβ1-42 fibrillization, this molecule yielded an Aβ fibrillization inhibition of 40.83 ± 0.30%. The “Inhibition Type” value in assay [2] was “Competitive”; in assay [2] (listed as murrayanol), “Competitive inhibition”. Besides, the Vmax in assay [2] (inhibitor 10 μg/mL) amounted to 0.3756 µmol/min/mg; in assay [2] (inhibitor 30 μg/mL), 0.3613 µmol/min/mg. The Ki in assay [2] (setting [4]) is 444 nM; in assay [2] (setting [5]), 470 nM; in assay [2] (setting [6]), ~450 nM and 450 nM and 440 to 590 nM.

Regarding `COc1ccc2c3c1O[C@H]1C[C@@H](O)C=C[C@@]31CCN(C)C2` [Galantamine, galantamine], the “IC50 anti-AChE, previously reported value” in the assay with AChE was 0.31 µg/mL (≈ 1.08 µM).

Take `Cn1c2ccccc2c2ccc(C=O)cc21` [9-Methyl-9H-carbazole-2-carbaldehyde, 9-methyl-9H-carbazole-2-carbaldehyde]: the IC50 in assay [1] is 37600 nM. In addition, the Aβ fibrillization inhibition result on Aβ1-42 fibrillization is given as “did not show any inhibition”; on Aβ1-42 fibrillization (setting [7]) it was “no inhibition”. Also, the “Inhibition Type” value is given as “Competitive” in assay [2] and “Competitive inhibition” in assay [2] (setting [7]). For the same molecule, the values for the Vmax in assay [2] (inhibitor 10 μg/mL) and in assay [2] (inhibitor 30 μg/mL) were 0.3874 µmol/min/mg and 0.3634 µmol/min/mg, respectively. The Ki was 29200 nM in assay [2] (setting [4]), 31400 nM in assay [2] (setting [5]) and around 30000 nM in assay [2] (setting [6]).

For the molecule `CC(C)=CCCC1(C)C=Cc2c(c(C)cc3c2[nH]c2ccccc23)O1` (centres unmarked) [Mahanimbine, mahanimbine], the IC50 in assay [1] is ~603 nM and 603 nM. Also, the Aβ fibrillization inhibition on Aβ1-42 fibrillization worked out at 27.68 ± 2.71%. The “Inhibition Type” value in assay [2] is given as “Non-Competitive”; in assay [2] (listed as mahanimbine), “non-competitive inhibition”. Moreover, the Vmax in assay [2] (inhibitor 10 μg/mL) is 0.2098 µmol/min/mg; in assay [2] (inhibitor 30 μg/mL), 0.2231 µmol/min/mg. Besides, the inhibition constant (Ki) in assay [2] (setting [4]) was 599 nM; in assay [2] (setting [5]) it was 599 nM; in assay [2] (setting [6]) it was 440 to 590 nM. In assay [3] (animal model), the Aβ1-40 levels result is listed as “reduced”. Further, in assay [3] (animal model), the Cognition result is “improved cognition”. Further, the “ACh levels in the brain” value in assay [3] (setting [8]) was “improved”. Moreover, in assay [3] (setting [8]), the “AChE in the brain” value is listed as “inhibited”.

Turning to `COc1cc(C)cc2c1[nH]c1ccccc12` [Murrayafoline A, murrayafoline A], the IC50 in assay [1] is 67800 nM. The same molecule gave an Aβ fibrillization inhibition on Aβ1-42 fibrillization of 33.60 ± 0.55%. Also, the “Neuroprotective activity by reducing inflammation” value in the assay with microglial cells was “neuroprotective activity”. Also, the entries for the “Inhibition Type” value in assay [2] and in assay [2] (listed as murrayafoline A) were “Competitive” and “Competitive inhibition”, respectively. Also, the figures for the maximal velocity (Vmax) in assay [2] (inhibitor 10 μg/mL) and in assay [2] (inhibitor 30 μg/mL) were 0.3826 µmol/min/mg and 0.3753 µmol/min/mg, respectively. Also, the Ki was 58700 nM in assay [2] (setting [4]), 61000 nM in assay [2] (setting [5]) and around 60000 nM in assay [2] (setting [6]).

For the molecule `O=S1(=O)OC(c2ccc(O)cc2)(c2ccc(O)cc2)c2ccccc21` [phenol red, reference compound], the inhibition at 50 µM on Aβ1-42 fibrillization (phenol red 50 μM, read-out: Aβ fibrillization inhibition (positive control)) was found to be 67.86 ± 0.38%.

Source of the values: PMC12348157, “Neuroprotective Evaluation of Murraya Carbazoles: In Vitro and Docking Insights into Their Anti-AChE and Anti-Aβ Activities” (Molecules, 2025).
